Experimental data taken from PubChem BioAssay (NCI).
Where “and” joins values, the source holds several entries; their conditions need not be identical. Equal entries are not always repeated.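 Results reflect a 48-hour exposure of cells in 96-well plates to compound at five concentrations. Abbreviation: GI50, concentration required for 50% inhibition of growth. TGI denotes the concentration required for complete inhibition of growth.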

How the values were obtained:
Experiment in all cases: NCI tumour cell line growth inhibition, 48 h
[1] = system: 786-0 renal
[2] = system: CCRF-CEM leukemia
[3] = system: EKVX NSCLC
[4] = system: IGROV1 ovarian
[5] = system: NCI-H522 lung
[6] = system: SF-268 CNS
[7] = system: SK-OV-3 ovarian
[8] = system: TK-10 renal
[9] = system: UACC-257 melanoma
[10] = system: UO-31 renal

| SMILES | TGI [1] [µM] | TGI [2] [µM] | TGI [3] | TGI [4] | TGI [5] | TGI [6] [µM] | TGI [7] [µM] | TGI [8] | TGI [9] [µM] | TGI [10] | GI50 [1] [µM] | GI50 [2] [µM] | GI50 [3] [µM] | GI50 [4] [µM] | GI50 [5] [µM] | GI50 [6] [µM] | GI50 [7] [µM] | GI50 [8] [µM] | GI50 [9] [µM] | GI50 [10] [µM] |
| --- | --- | --- | --- | --- | --- | --- | --- | --- | --- | --- | --- | --- | --- | --- | --- | --- | --- | --- | --- | --- |
| COc1cc(C(=O)C/C(CCC(=O)Nc2ccc(Cl)cc2Cl)=N/NC(=O)C(N)=O)ccc1O | > 100 | > 100 | > 100 µM | > 100 µM | > 100 µM | > 100 | > 100 | > 100 µM | > 100 | > 100 µM |  |  |  |  |  |  |  |  |  |  |
| CCOC(=O)N1N=NC2C3OC(C[C@@]3(C#N)OC(C)=O)[C@H]21 (some centres not stated) | > 100 | > 100 | > 100 µM | > 100 µM | > 100 µM | > 100 | > 100 | > 100 µM | > 100 | > 100 µM |  |  |  |  |  |  |  |  |  |  |
| COc1cc2nc(N3CCCC3)nc(Nc3ccccc3)c2cc1OC | 3.53 | 3.09 | 3.53 µM | 2.84 µM | 3.96 µM | 3.93 | 3.72 | 3.37 µM | 3.79 | 2.84 µM | 1.71 | 0.329 | 1.88 | 1.38 | 1.89 | 1.85 | 1.99 | 1.88 | 1.86 | 1.39 |
| Nc1nc(N)c(N=O)c(Nc2ccc(I)cc2)n1 | > 100 | 89.9 | > 100 µM | 25.8 µM | 29.9 µM | 74.1 | 39.2 | 62.1 µM | 70.1 | > 100 µM |  |  |  |  |  |  |  |  |  |  |
| CN(C)C(=O)c1cc2cnc(Nc3ccc(-c4csc5c(=O)cc(N6CCNCC6)oc45)cc3)nc2n1C1CCCC1 | 1.93 |  | 6.53 µM | 6.12 µM | 2.55 µM | 4.09 | 21.2 | 14.6 µM | 22.9 | 4.58 µM | 0.535 | 0.433 | 1.49 | 0.523 | 0.473 | 0.638 | 6.21 | 1.34 | 5.28 | 1.64 |
| O=C1c2ccccc2-c2n[nH]c3cccc1c23 | > 100 | > 100 | > 100 µM and 85.1 µM | > 100 µM and 99.1 µM | 50.4 µM and > 92.8 µM | > 100 | > 100 | 52 µM and 76.2 µM | > 100 | > 100 µM and 55.9 µM | 11.9 |  | 7.03 | 9.32 | 15.7 | 12 | 7.39 | 7.44 |  | 4.02 |
| CCC[CH2][Sn]([CH2]CCC)([O]C(=O)c1cc(OC)c(OC)cc1OC)[O]C(=O)c1cc(OC)c(OC)cc1OC | 2.78 | 1.11 | 4.83 µM | 2.96 µM | 1.14 µM | 2.54 | 5.51 | 2.84 µM | 3.31 | 2.92 µM | 1.41 | 0.295 | 1.64 | 1.43 | 0.373 | 1.23 | 2.14 | 1.5 | 1.29 | 1.57 |
